For 16 compounds, IC50 and melting point results are on record in PMC6321058, “Crystal Structures and Cytotoxicity of ent-Kaurane-Type Diterpenoids from Two Aspilia Species” (Molecules, 2018).

For orientation: IC50 means the concentration at which inhibition is half-maximal. Read a high IC50 as a need for much substance. Usually melting point stands for the temperature, or range, at which the solid turns liquid.

Series [1] is described as follows: MTT cytotoxicity assay, BEAS-2B. Format: cell-based. The conditions noted are these: human, normal cell line BEAS-2B, 0.19–100 μM. The protocol: (§1) Reagent and cells. Adenocarcinomic human alveolar basal epithelial (A549) and human hepatoma (HepG2) cancer cell lines, immortalized normal human liver (LO2), human bronchial epithelial (BEAS-2B), and fibroblast-like CCD19Lu cells were purchased from [NT], Manassas, VA, USA). The cells were cultured in RPMI-1640 medium supplemented with 10% fetal bovine serum and antibiotics: Penicillin (50 U/Ml) and streptomycin (50 μg/mL; Invitrogen, Paisley, Scotland, UK). All cells were incubated at 37 °C in a 5% humidified CO2 incubator). All test compounds were dissolved in DMSO at a final concentration of 50 mM and stored at -20 °C before use. […] Briefly, 5 × 10^3 cells per well were seeded in 96-well plates before drug treatments. […] Cells without drug treatment were used as controls. Subsequently, 10 μL of 5 mg/mL MTT solution was added to each well and incubated at 37 °C for 4 h, followed by the addition of 100 μL solubilization buffer (12 mM HCl in a solution of 10% SDS) and overnight incubation. The absorbance, A570 nm, was then determined in each well on the next day. The percentage cell viability was calculated using the expression: % Viability = Atreated/ Acontrol × 100, and was given as cytotoxicity in Table 3.

Series [2] can be described thus: MTT cytotoxicity assay, LO2. Format: cell-based. The conditions noted are these: human, normal cell line LO2, MTT, 0.19–100 μM. The protocol:
as §1
On the technique in general: Tetrazolium dyes change colour on reduction, which living cells bring about.

The nature of series [3]: MTT cytotoxicity assay, A549. Conditions: human, cancer cell line A549, MTT, 0.19–100 μM. It is filed as cell-based. The procedure: as §1
Series [4] is described as follows: MTT cytotoxicity assay, Hep-G2. It is filed as cell-based. The conditions noted are these: human, cancer cell line Hep-G2, MTT, 0.19–100 μM. The procedure:
as §1

Where [5] appears, read: BEAS-2B cells (human bronchial epithelial).
The mark [6] stands for this setting: LO2 cells (immortalized normal human liver).

Each structure is given as a SMILES string. Where only a bound is given, the exact number is not on record here.

With `C=C1CC23CCC4C(C)(C(=O)O)CCCC4(C)C2=CC(OC)C1C3` (stereo not drawn) [Compound 1, 12α-methoxy-ent-kaur-9(11),16-dien-19-oic acid], the melting point was in the range of 184 to 186 °C. The compound further registered an IC50 at 72 h in series [1] of over 100 µM. In series [2], this compound had an IC50 at 72 h of over 100 µM. Moreover, the IC50 at 72 h in series [3] is over 100 µM. In series [4], this compound showed an IC50 at 72 h of 27.3 ± 1.9 µM.
With `C=C1CC23CCC4C(C)(C(=O)O)CCCC4(C)C2CCC1C3` (stereo not drawn) [Compound 11, ent-kaur-16-en-19-oic acid], the IC50 at 72 h in series [1] (setting [5]), in series [2] (setting [6]), in series [3] and in series [4] (HepG2 cells (human hepatoma)) was over 100 µM in each case.
As to `C=C1C2CCC3C4(C)CCCC(C)(C(=O)O)C4CCC3(C2)C1OC(=O)C(C)=CC` (stereo not drawn) [Compound 7, 15α-angeloyloxy-ent-kaur-16-en-19-oic acid], the IC50 at 72 h in series [1] (setting [5]), in series [2] (setting [6]), in series [3] and in series [4] (HepG2 cells (human hepatoma)) was over 100 µM each time.
Regarding `CC=C(C)C(=O)OC1C23CCC4C(C)(C(=O)O)CCCC4(C)C2CCC(C3)C12CO2` (stereo not drawn) [Compound 5, 15α-angeloyloxy-16β,17-epoxy-ent-kauran-19-oic acid], the melting point is 242 to 243 °C. In series [1] (setting [5]), this compound yielded an IC50 at 72 h of over 100 µM. The same compound registered a half-maximal inhibitory concentration (IC50) at 72 h in series [2] (setting [6]) of over 100 µM. In series [3], this compound showed an IC50 at 72 h of 30.7 ± 1.7 µM. In addition, the IC50 at 72 h in series [4] (HepG2 cells (human hepatoma)) is over 100 µM.
As to `C=C1CC23CCC4C(C)(C(=O)OC)CCCC4(C)C2CCC1C3` (stereo not drawn) [Compound 10, methyl-ent-kaur-16-en-19-oate], the IC50 at 72 h in series [1] (setting [5]), in series [2] (setting [6]), in series [3] and in series [4] (HepG2 cells (human hepatoma)) was over 100 µM in each case.
With `CO[C@@]1(C)C[C@@]23CC[C@@H]4[C@](C)(C(=O)O)CCC[C@@]4(C)C2=CC[C@@H]1C3` [Compound 6a], the IC50 at 72 h in series [1] (setting [5]), in series [2] (setting [6]), in series [3] and in series [4] (HepG2 cells (human hepatoma)) was over 100 µM each time.
Consider `C=C1C[C@@]23CC[C@@H]4[C@](C)(C(=O)O)CCC[C@@]4(C)C2=CC[C@@H]1C3` [Compound 6, ent-kaur-9(11),16-dien-19-oic acid], for which the IC50 at 72 h in series [1], in series [2], in series [3] and in series [4] was over 100 µM throughout.
In the case of `C=C1C2CCC3(O)C4(C)CCCC(C)(C(=O)O)C4CCC3(C2)C1OC(=O)C(C)=CC` (stereo not drawn) [Compound 3, 9β-hydroxy-15α-angeloyloxy-ent-kaur-16-en-19-oic acid], the IC50 at 72 h in series [1] (setting [5]) was 89.9 ± 2 µM; in series [2] (setting [6]), 57.2 ± 1.2 µM; in series [3], over 100 µM; in series [4] (HepG2 cells (human hepatoma)) it was 24.7 ± 2.8 µM.
For the compound `CC[C@H](/C=C/[C@@H](C)[C@H]1CC[C@H]2[C@@H]3CC=C4C[C@@H](O)CC[C@]4(C)[C@H]3CC[C@]12C)C(C)C` [Compound 14, stigmasta-5,22(E)-dien-3β-ol], the IC50 at 72 h in series [1], in series [2], in series [3] and in series [4] was over 100 µM in each case.
As to `C=C1C2CCC3C4(C)CCCC(C)(C(=O)OC)C4CCC3(C2)C1OC(=O)C(C)=CC` (stereo not drawn) [Compound 17, methyl-15α-angeloyloxy-ent-kaur-16-en-19-oate], the IC50 at 72 h in series [1] (setting [5]), in series [2] (setting [6]), in series [3] and in series [4] (HepG2 cells (human hepatoma)) was over 100 µM in each case.
With `C=C1C[C@@]23CC[C@@H]4C(C)(C)CCC[C@@]4(C)C2=CC(=O)C1C3` [Compound 9, ent-kaur-9(11),16-dien-12-one], the IC50 at 72 h in series [1] (setting [5]) is over 100 µM; in series [2] (setting [6]) it was 75.3 ± 2.8 µM; in series [3], over 100 µM; in series [4] (HepG2 cells (human hepatoma)), over 100 µM.
Regarding `C=C1CC23CCC4C(C)(C(=O)O)CCCC4(C)C2=CC(=O)C1C3` (stereo not drawn) [Compound 18, 12-oxo-ent-kaur-9(11),16-dien-19-oic acid], the IC50 at 72 h in series [1] is 38.6 ± 2.5 µM; in series [2], 30 ± 1.7 µM; in series [3], 80.5 ± 1.8 µM; in series [4] it was 81.3 ± 0.3 µM.
The like results for `C[C@@]12CCC[C@@](C)(C(=O)O)[C@H]1CC[C@@]13C[C@@H](CC[C@H]12)[C@](C)(O)C3` [Compound 2, (16R)-hydroxy-ent-kauran-19-oic acid] were, in that order, over 100 µM, over 100 µM, over 100 µM and over 100 µM.
`C=C1C2CCC3(O)C4(C)CCCC(C)(C(=O)OC)C4CCC3(C2)C1OC(=O)C(C)=CC` (stereo not drawn) [Compound 4, methyl-9β-hydroxy-15α-angeloyloxy-ent-kaur-16-en-19-oate]: the IC50 at 72 h in series [1] (setting [5]), in series [2] (setting [6]), in series [3] and in series [4] (HepG2 cells (human hepatoma)) was over 100 µM each time.
Consider `CC(=O)O[C@H]1C(=O)[C@@]2(C)[C@H]([C@H](OC(=O)c3ccccc3)[C@]3(O)C[C@H](OC(=O)[C@H](O)[C@@H](NC(=O)c4ccccc4)c4ccccc4)C(C)=C1C3(C)C)[C@]1(OC(C)=O)CO[C@@H]1C[C@@H]2O` [Paclitaxel, reference compound], for which the IC50 at 72 h in series [1] (setting [5]) was under 0.1 µM; in series [2] (setting [6]), under 0.1 µM; in series [3], 0.0033 µM; in series [4] (HepG2 cells (human hepatoma)), 0.19 µM.
Take `C[C@@H]1C[C@@]23CC[C@@H]4[C@](C)(C(=O)O)CCC[C@@]4(C)C2=CC[C@@H]1C3` [Compound 6b, ent-kaur-9(11)-en-19-oic acid]: the IC50 at 72 h in series [1] (setting [5]), in series [2] (setting [6]), in series [3] and in series [4] (HepG2 cells (human hepatoma)) was over 100 µM each time.
